{"source": "patent US9470680B2", "about": "“Fluorescence-based approach to monitor release factor-catalyzed termination of protein synthesis” (THE TRUSTEES OF COLUMBIA UNIVERSITY IN THE CITY OF NEW YORK, priority 2011, dated 2016)", "key": {"[1]": {"system": "polypeptide release at a stop codon", "settings": "cited from earlier work"}, "[2]": {"system": "RC2 (release complex with L1(Cy5) ribosomes and (Cy3)tRNAPhe)", "assay": "L1-tRNA smFRET monitoring the GS1/GS2 equilibrium", "type": "biochemical, Escherichia coli", "description": "RCs assembled on a biotinylated mRNA were immobilized on the surface of a streptavidin-derivatized quartz flow cell and visualized with single-molecule resolution using a total internal reflection fluorescence microscope. RC surface immobilization strategy and lab-built total internal reflection fluorescence (TIRF) microscope are described in FIG. 10. Experiments were performed at room temperature in Tris-polymix buffer at 15 mM Mg(OAc)2, supplemented with an oxygen-scavenging system (300 μg ml^−1 glucose oxidase, 40 μg ml^−1 catalase and 1% (w/v)(β-D-glucose). In addition, 1 mM 1,3,5,7-cyclooctatetraene (Aldrich) and p-nitrobenzyl alcohol (Fluka) was added to all buffers in order to quench a long-lived, non-fluorescent triplet state sampled by the Cy5 fluorophore. The oxygen-scavenging and triplet state quencher systems have no effect on the in vitro translation system used herein (Gonzalez et al. 2007; Blanchard et al. 2004b).\n(§1) Quartz microscope slides were cleaned and subsequently derivatized with a mixture of polyethyleneglycol (PEG) and PEG-biotin in order to passivate the surface (Blanchard et al. 2004b). Just prior to data acquisition, slides were treated with streptavidin, allowing immobilization of ribosomal RCs bound to an mRNA with a 3′-biotinylated DNA oligonucleotide pre-annealed to its 5′ end. smFRET data was collected with a wide-field, prism-based total internal reflection fluorescence microscope utilizing a 150 mW diode-pumped 532 nm laser (CrystaLaser) operating at 24 mW for Cy3 excitation, a 25 mW diode-pumped 643 nm laser (CrystaLaser) operating at 19 mW for direct Cy5 excitation, a Dual-View multi-channel imaging system (MAG Biosystems) for separation of Cy3 and Cy5 fluorescence emissions, and a back-thinned charge-coupled device camera (Cascade II, Princeton Instruments) with 2-pixel binning and 50 ms exposure time for detection. Single ribosomal RCs were identified by characteristic single-fluorophore fluorescence intensities as well as single-step fluorophore photobleaching.\nRaw intensity data was analyzed with the Metamorph software suite (Molecular Devices). […] For L1-tRNA smFRET experiments with RC2, excited Cy5 was directly with the 643 nm laser in frame one, followed by excitation with the 532 nm laser in order to generate FRET. […] Acquired trajectories composed of a pair of Cy3 and Cy5 intensity versus time trajectories from single ribosomes, were then visually inspected. […] For all RRF and RF3(GDPNP) datasets, an automated selection algorithm was first utilized before visual inspection of the trajectories. This algorithm averages each trajectory over three data points, differentiates intensity with respect to time, and calculates the correlation coefficient for each Cy3/Cy5 pair. Trajectories with a negative correlation coefficient (anti-correlated) were kept for further analysis. Finally, all trajectories were required to last at least 0.5 seconds (i.e. 10 frames) before photobleaching of either fluorophore.\nCy3 and Cy5 fluorescence intensities were baseline corrected in each trajectory by generating one-dimensional Cy3 and Cy5 fluorescence intensity histograms from trajectories within each dataset, determining the intensity value of the most populated bin (which represents background noise intensity after fluorophore photobleaching), and then subtracting this value from all Cy3 and Cy5 intensity data points within every trajectory. Due to the imperfect performance of emission filters, the Cy3 signal bleed-through into the Cy5 channel was experimentally determined to be ˜9%. The Cy5 intensity of each trajectory was corrected using this bleed-through coefficient. smFRET values for each Cy3/Cy5 data point were calculated using ICy5/(ICy3+ICy5), where ICy3 and ICy5 are the intensities of Cy3 and Cy5, respectively.\nThe rates of GS1→GS2 (kGS1→GS2) and G52→GS1 (kGS2→GS1) transitions for each dataset were determined as follows. […]"}, "RF1-bound RCs": {"system": "RF1-bound RCs", "assay": "RF3 activity assay (RF3-catalyzed RF1 recycling, multiple-turnover peptide release)", "type": "biochemical, Escherichia coli", "settings": "limiting RF1; GDP, GTP or GDPNP; 10 minutes", "description": "RF3 activity was tested by following the extent of peptide release in cases where RF1 was limiting and RF3 was required to actively recycle RF1, thereby enabling multiple turnover (Zavialov et al. 2001). Reactions were performed as described, with two exceptions: when present, GDP, GTP, or GDPNP was added to the RF1/RF3 mix during the 1 minute pre-incubation, and upon adding the RF1/RF3/nucleotide mix to RCs, reactions were incubated for 10 minutes."}, "[3]": {"target": "GS1 conformation of the PoTC (RC2Pmn)", "assay": "RRF titration, binding isotherm fit of GS2/GS1 peak area ratio", "parameters": "species or system Escherichia coli", "text": "(§2) To more quantitatively probe the subtle effect of RRF on the GS1⇄GS2 equilibrium, one-dimensional smFRET histograms of the entire population of trajectories were plotted as a function of RRF concentration (FIG. 24). The areas under the peaks centered at 0.16 and 0.76 FRET report the equilibrium populations of GS1 and GS2, respectively. […] Assuming that RRF can bind to both GS1 and GS2, a plot of the GS2/GS1 peak area ratio (Keq) vs. RRF concentration can be fit by the following binding isotherm in order to determine the equilibrium dissociation constants for RRF binding to GS1 (Kd,GS1) and GS2 (Kd,GS2) (Sarkar et al. 2007):\n(§3) [formula] where C is the GS2/GS1 peak area ratio in the absence of RRF."}, "[4]": {"target": "GS2 conformation of the PoTC (RC2Pmn)", "assay": "RRF titration, binding isotherm fit of GS2/GS1 peak area ratio", "parameters": "species or system Escherichia coli", "text": "as §2, §3"}, "vacant ribosomes": {"target": "vacant ribosomes", "settings": "in the absence of mRNA or tRNAs; read-out: Kd of RRF binding to vacant ribosomes; cited from earlier work"}, "[5]": {"system": "RC1 (release complex, fMet-Phe-(Cy3)tRNAPhe in the P site, stop codon at the A site)", "assay": "RF1-tRNA smFRET between P-site (Cy3)tRNAPhe and (Cy5)RF1 bound at the A site", "type": "binding, Escherichia coli", "settings": "UAA-U stop codon, in the presence of paromomycin (100 μM per FIG. 11)", "text": "RCs assembled on a biotinylated mRNA were immobilized on the surface of a streptavidin-derivatized quartz flow cell and visualized with single-molecule resolution using a total internal reflection fluorescence microscope. RC surface immobilization strategy and lab-built total internal reflection fluorescence (TIRF) microscope are described in FIG. 10. […]\nas §1, with “Single ribosomal RCs were identified by characteristic single-fluorophore fluorescence intensities as well as single-step fluorophore photobleaching.” left out\nRaw intensity data was analyzed with the Metamorph software suite (Molecular Devices). […]"}, "[6]": {"settings": "RC2 pre-treated with puromycin (RC2Pmn), no factors, corrected rate"}, "[7]": {"settings": "RC2Pmn in the presence of 1 μM factor"}, "[8]": {"settings": "RC2RF1 in the presence of 1 μM RF1, RF3(GDP) and 1 mM GTP"}, "[9]": {"settings": "RC2RF1 in the presence of 1 μM RF1 and 1 μM RF3 form, no GTP"}, "[10]": {"settings": "RC2Pmn, 0-1.5 μM RRF (near Kd,GS2)"}}}
{"compound": "NC[C@@H]1O[C@H](O[C@H]2[C@@H](O)[C@H](O[C@@H]3[C@@H](O)[C@H](N)C[C@H](N)[C@H]3O[C@H]3O[C@H](CO)[C@@H](O)[C@H](O)[C@H]3N)O[C@@H]2CO)[C@H](N)[C@@H](O)[C@@H]1O", "note": "[paromomycin]", "values": [{"measurement": "inhibition of polypeptide release at a stop codon", "setting": "[1]", "value": "very strongly inhibits polypeptide release at a stop codon"}]}
{"compound": "COc1ccc(C[C@H](N)C(=O)N[C@H]2[C@@H](O)[C@H](n3cnc4c(N(C)C)ncnc43)O[C@@H]2CO)cc1", "note": "[puromycin, reference compound]", "values": [{"measurement": "trajectories fluctuating between 0.16 and 0.76 FRET", "setting": "[2]; RC2 pre-treated with puromycin (RC2Pmn), no factors", "value": "~63", "unit": "%"}, {"measurement": "kGS1→GS2", "setting": "[2]; [6]", "value": "0.52 ± 0.03", "unit": "s⁻¹"}, {"measurement": "kGS2→GS1", "setting": "[2]; [6]", "value": "1.36 ± 0.03", "unit": "s⁻¹"}]}
{"compound": "RF1: Escherichia coli class 1 release factor 1, purified, co-expressed with PrmC methyltransferase", "values": [{"measurement": "trajectories fluctuating between 0.16 and 0.76 FRET", "setting": "[2]; [7]", "value": 9, "unit": "%"}, {"measurement": "trajectories stably centered at / sampling only 0.16 FRET (GS1)", "setting": "[2]; [7]", "value": 85, "unit": "%"}, {"measurement": "trajectories stably centered at / sampling only 0.76 FRET (GS2)", "setting": "[2]; [7]", "value": 6, "unit": "%"}, {"measurement": "trajectories fluctuating between 0.16 and 0.76 FRET", "setting": "[2]; RC2 in the presence of 1 μM factor", "value": 2, "unit": "%"}, {"measurement": "trajectories stably centered at 0.16 FRET (GS1)", "setting": "[2]; RC2 in the presence of 1 μM factor (87% without RF1)", "value": 98, "unit": "%"}]}
{"compound": "RF3(GDP): RF3 in the GDP form", "values": [{"measurement": "kGS2→GS1 relative to RC2Pmn in the absence of RF1, RF3 and guanine nucleotide", "setting": "[2]; RC2RF1+RF3(GDP)+GTP versus 1.36±0.03 s^−1", "value": "~3", "unit": "fold"}, {"measurement": "kGS2→GS1", "setting": "[2]; RC2RF1+RF3(GDP)+GTP, 1 μM RF1, 10 μM GDP and 1 mM GTP, corrected rate, lower limit", "value": "≥ 3.7 ± 0.6", "unit": "s⁻¹"}, {"measurement": "trajectories exhibiting fluctuations between GS1 and GS2", "setting": "[2]; [8]", "value": 42, "unit": "%"}, {"measurement": "trajectories stably centered at 0.16 FRET (GS1)", "setting": "[2]; [8]", "value": 58, "unit": "%"}, {"measurement": "trajectories fluctuating between 0.16 and 0.76 FRET", "setting": "[2]; [9]", "value": 2, "unit": "%"}, {"measurement": "trajectories stably centered at 0.16 FRET (GS1)", "setting": "[2]; [9]", "value": 98, "unit": "%"}]}
{"compound": "RF3(GDPNP): RF3 with GDPNP, a non-hydrolyzable GTP analog", "values": [{"measurement": "trajectories fluctuating between 0.16 and 0.76 FRET", "setting": "[2]; [7]", "value": 22, "unit": "%"}, {"measurement": "trajectories stably centered at / sampling only 0.16 FRET (GS1)", "setting": "[2]; [7]", "value": 5, "unit": "%"}, {"measurement": "trajectories stably centered at / sampling only 0.76 FRET (GS2)", "setting": "[2]; [7]", "value": 73, "unit": "%"}]}
{"compound": "RF3: Escherichia coli class II release factor, a GTPase", "values": [{"measurement": "nucleotide dependence of RF3-catalyzed RF1 recycling", "setting": "RF1-bound RCs", "value": "exhibits the proper nucleotide dependence in recycling RF1"}]}
{"compound": "RRF: Escherichia coli ribosome recycling factor", "values": [{"measurement": "kGS1→GS2 relative to free RC2Pmn", "setting": "[2]; 50 μM RRF versus 0.52±0.03 s^−1", "value": 1.6, "unit": "fold"}, {"measurement": "trajectories fluctuating between 0.16 and 0.76 FRET", "setting": "[2]; [7]", "value": 70, "unit": "%"}, {"measurement": "trajectories stably centered at / sampling only 0.16 FRET (GS1)", "setting": "[2]; [7]", "value": 7, "unit": "%"}, {"measurement": "trajectories stably centered at / sampling only 0.76 FRET (GS2)", "setting": "[2]; [7]", "value": 23, "unit": "%"}, {"measurement": "kGS1→GS2 as a function of RRF concentration", "setting": "[2]; [10]", "value": "remain unchanged"}, {"measurement": "kGS2→GS1 as a function of RRF concentration", "setting": "[2]; [10]", "value": "decreases linearly"}, {"measurement": "kGS1→GS2", "setting": "[2]; RC2Pmn, 50 μM RRF", "value": "0.83 ± 0.06", "unit": "s⁻¹"}, {"measurement": "Kd", "setting": "[3]", "value": "12000 ± 2000", "unit": "nM"}, {"measurement": "Kd", "setting": "[4]; RC2Pmn + RRF titration", "value": "900 ± 300", "unit": "nM"}, {"measurement": "binding to GS2 over GS1", "setting": "[4]; from Kd,GS2 and Kd,GS1", "value": "greater than an order of magnitude tighter binding to GS2 over GS1"}, {"measurement": "Kd", "setting": "vacant ribosomes", "value": "200 to 600", "unit": "nM"}]}
{"compound": "S192C: single-cysteine S192C RF1 (PVT domain) labeled with Cy5", "values": [{"measurement": "lifetime of the FRET state (dwell time analysis)", "setting": "[5]", "value": "< 0.38 ± 0.02", "unit": "s"}]}
{"compound": "nucleotide-free RF3: RF3 without guanine nucleotide", "values": [{"measurement": "trajectories fluctuating between 0.16 and 0.76 FRET", "setting": "[2]; [9]", "value": 1, "unit": "%"}, {"measurement": "trajectories stably centered at 0.16 FRET (GS1)", "setting": "[2]; [9]", "value": 99, "unit": "%"}]}
